Experimental data reported in ChEMBL document CHEMBL1143207, “New 7,8-benzoflavanones as potent aromatase inhibitors: synthesis and biological evaluation” (Bioorg Med Chem, 2008).

Biological target: T1, Aromatase (Homo sapiens, UniProt P11511)
T1 sequence (P11511 whole entry): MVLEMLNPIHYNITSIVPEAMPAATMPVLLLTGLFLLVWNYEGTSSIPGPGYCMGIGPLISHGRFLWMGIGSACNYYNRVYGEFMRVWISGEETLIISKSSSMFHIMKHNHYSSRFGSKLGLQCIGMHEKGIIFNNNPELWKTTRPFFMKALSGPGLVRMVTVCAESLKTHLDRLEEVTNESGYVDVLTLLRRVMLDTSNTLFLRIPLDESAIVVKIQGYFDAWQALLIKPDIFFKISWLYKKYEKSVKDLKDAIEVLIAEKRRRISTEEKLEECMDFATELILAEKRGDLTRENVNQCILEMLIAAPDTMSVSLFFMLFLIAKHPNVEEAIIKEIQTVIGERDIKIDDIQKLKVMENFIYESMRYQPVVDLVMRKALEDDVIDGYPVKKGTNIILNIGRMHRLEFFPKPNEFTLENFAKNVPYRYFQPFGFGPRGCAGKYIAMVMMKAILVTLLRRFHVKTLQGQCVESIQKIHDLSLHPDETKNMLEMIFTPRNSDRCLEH
Type: microsomes, Placenta, Microsomes
Description: Inhibition of human aromatase in placental microsomes

Row | SMILES | IC50 [µM]
1 | O=C1CC(c2cccc(O)c2)Oc2c1ccc1ccccc21 (configuration not stated) | 0.61
2 | N#Cc1cccc(C2CC(=O)c3ccc4ccccc4c3O2)c1 (configuration not stated) | 1.37
3 | N#Cc1ccc(C2CC(=O)c3ccc4ccccc4c3O2)cc1 (configuration not stated) | 1.54
4 | O=C1CC(c2ccccc2)Oc2c1ccc1ccccc21 (configuration not stated) | 4.3

Second part, the compound after the results:

Row | IC50 [µM] | SMILES
5 | 0.63 | O=C1CC(c2ccc(O)cc2)Oc2c1ccc1ccccc21 (configuration not stated)
6 | 3.4 | O=C1CC(c2cccc(O)c2)Oc2cc(O)ccc21 (configuration not stated)
7 | 2.1 | O=C1C[C@@H](c2ccc(O)cc2)Oc2cc(O)ccc21 [LIQUIRTIGENIN]
